Test results reported in patent US12350250B2, “Aggrelytes for treating ocular conditions” (The Regents of the University of Colorado, a Body Corporate, priority 2022, dated 2025).

Legend:
Test in all cases: Identification of AcK sites in proteins of Aggrelyte-2-treated lens (AcK peptide enrichment, LC-MS/MS)
Parameters in all cases: key to Fold Change (Aggrelyte-2 vs Control) [Total Sum]: *: were not detected in the control lens but were prominent in the Aggrelyte-2-treated lens
[1] = biological target: T1, human lens cortical proteins (Homo sapiens, UniProt P02489); conditions: for Aggrelyte-2 treated Area: lens of donor
T1 construct: from tissue; host or cells: cortex of a human lens from a donor, treated ex vivo
T1 sequence (P02489 1-173): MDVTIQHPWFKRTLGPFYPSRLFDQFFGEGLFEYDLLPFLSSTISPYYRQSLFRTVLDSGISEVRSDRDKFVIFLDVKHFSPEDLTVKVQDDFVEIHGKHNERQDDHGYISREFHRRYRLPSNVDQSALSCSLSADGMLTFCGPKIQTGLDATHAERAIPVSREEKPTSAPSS
Procedure: (§1) The AcK modification sites and relative levels at those sites in the Aggrelyte-2-treated and untreated (control) human lens cortical proteins were evaluated in the lens (from a donor) that had the largest overall AcK differential measured by Western blot analysis (blot not shown; densitometric summary in FIG. 14B) and LC-MS/MS (FIG. 15B). Each sample (315 μg) was spiked with 200 ng of acetylated bovine serum albumin (AcBSA) protein standard, reduced, alkylated, and digested with trypsin using a urea-based method and then desalted using a C18 resin before being lyophilized. The samples were then immunoprecipitated according to the manufacturer's protocol for the PTMScan Acetyl-Lysine Motif Kit No. 13416 (Cell Signaling Technology). Peptides were purified with a Pierce C18 spin column (Thermo Fisher Scientific) and dried in a Speed Vac concentrator at 45° C. The peptides were resuspended in 3% acetonitrile in 0.1% formic acid for MS analysis.
(§2) The enriched AcK-bearing peptides were loaded onto a 2 cm PepMap 100 nanoviper trapping column and chromatographically resolved with a 0.075×250 mm, […] Acclaim PepMap RSLC reversed-phase nanocolumn (Thermo Scientific) using a 1290 Infinity II LC system equipped with a nanoadapter (Agilent). The mobile phase consisted of water+0.1% formic acid (A) and 90% aqueous acetonitrile+0.1% formic acid (B). Samples were loaded onto the trapping column at 3.0 μL/min for 3.5 min under initial conditions before being chromatographically separated at an effective flow rate of 330 nL/min using a gradient of 3-8% B over 3 min, 8-30% B over 33 min, and 30-40% B over 4 min at 40° C. The gradient was followed by a column wash at 75% B for 5 min. Data were collected using a 6550 Q-TOF equipped with a nanosource (Agilent Technologies) operated using intensity-dependent CID MS/MS to generate peptide identifications. MS/MS data were collected in positive ion polarity over a mass range of 290-1700 m/z at a scan rate of 8 spectra/second for MS scans and a mass range of 50-1700 m/z at a scan rate of 3 spectra/second for MS/MS scans. All charge states, except singly charged species, were allowed during MS/MS acquisition.
(§3) Tandem mass spectra were extracted, searched, and summarized using PEAKS X+ Studio 10.5 software (Bioinformatics Solutions Inc., Waterloo, Ontario). The spectra were searched against the UniProtKB SwissProt [2022_02] Homo sapiens database, allowing for up to three missed semitryptic cleavages with fixed carbamidomethylation of cysteine and a maximum of four variable modifications of deamidation of asparagine and glutamine, oxidation of methionine and/or acetylation of lysine per peptide. The allowed monoisotopic peptide mass tolerance was ±15.0 ppm, and the MS/MS tolerance was ±0.05 da. A false discovery rate (FDR) filter of 0.5% was used corresponding to a −10 log P score ≥19.3.
(§4) The MS-only level data from the LC-MS/MS analyses were extracted and aligned using Profinder V.B.10.01 software (Agilent Technologies). Retention times, neutral masses, and chemical formulas generated from identified acetyl peptides were used to perform batch-targeted feature extraction. Data were extracted with an ion count threshold of two or more ions, 5000 counts, and a score threshold of 70. The score was based on the quality of the mass accuracy, isotope abundances, and isotope spacing of compounds based on the chemical formula of the target peptides within a specified retention time window. Using the peptide isotope model, charge states 2-6 were allowed with H^+ and Na^+ charge carriers. The retention time window and mass window alignment tolerances were set to 0.4 min and 10 ppm, respectively. The extracted peptide peak areas were then used to determine a fold change value in the treated vs. control samples to help identify potential AcK sites that may be affected by aggrelyte-2. Due to a lack of statistical power, a three-fold change filter was used as a sufficient cutoff to identify potential AcK sites of interest. […]

[2] = biological target: T2, human lens cortical proteins (Homo sapiens, UniProt P32320); conditions: Cytidine deaminase K51
T2 construct: from tissue; host or cells: cortex of a human lens from a donor, treated ex vivo
T2 sequence (P32320 whole entry): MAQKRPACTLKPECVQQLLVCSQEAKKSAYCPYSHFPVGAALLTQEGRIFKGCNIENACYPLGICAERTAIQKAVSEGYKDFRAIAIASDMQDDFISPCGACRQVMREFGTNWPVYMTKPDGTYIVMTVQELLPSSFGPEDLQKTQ
Procedure: as §1, §2, §3, §4

[3] = test system: human lens cortical proteins
Procedure: as §1, §2, §3, §4

[4] = biological target: T3, human lens cortical proteins (Homo sapiens, UniProt Q71U36); conditions: Tubulin alpha-1A chain K370
T3 construct: from tissue; host or cells: cortex of a human lens from a donor, treated ex vivo
T3 sequence (Q71U36 whole entry): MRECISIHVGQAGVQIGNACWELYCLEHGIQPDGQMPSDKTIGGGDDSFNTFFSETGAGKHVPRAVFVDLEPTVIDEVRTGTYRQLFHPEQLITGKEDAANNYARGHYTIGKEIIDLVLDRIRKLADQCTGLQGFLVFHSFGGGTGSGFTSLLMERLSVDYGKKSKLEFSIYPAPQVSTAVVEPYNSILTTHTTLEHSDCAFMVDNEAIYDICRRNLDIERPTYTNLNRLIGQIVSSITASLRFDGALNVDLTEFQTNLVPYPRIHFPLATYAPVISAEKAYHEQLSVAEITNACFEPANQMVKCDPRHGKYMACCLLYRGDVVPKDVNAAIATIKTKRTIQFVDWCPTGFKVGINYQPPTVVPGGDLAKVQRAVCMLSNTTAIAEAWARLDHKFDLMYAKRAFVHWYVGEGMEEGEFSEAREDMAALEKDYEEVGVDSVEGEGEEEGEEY
Procedure: as §1, §2, §3, §4

Fold Change (Aggrelyte-2 vs Control) [Total Sum] ([1]; AlphaA-crystallin K70): 3.13 | Aggrelyte-2 treated Area ([1]; AlphaA-crystallin K70): 8.80E+06 | Fold Change (Aggrelyte-2 vs Control) [Total Sum] ([1]; AlphaA-crystallin K88): * | Aggrelyte-2 treated Area ([1]; AlphaA-crystallin K88): 1.11E+05 | Fold Change (Aggrelyte-2 vs Control) [Total Sum] [2]: 3.66 | Aggrelyte-2 treated Area ([2]; lens of donor): 7.26E+05 | Fold Change (Aggrelyte-2 vs Control) [Total Sum] [4]: * | Aggrelyte-2 treated Area ([4]; lens of donor): 4.24E+04
SMILES: COC(=O)[C@H](CSC(C)=O)NC(C)=O [Aggrelyte-2, N,S-diacetyl-L-cysteine methyl ester]
Aggrelyte-2 treated Area ([3]; Acetylated Bovine Serum Albumin Standard Spike at 200 ng in each sample (workup control), 17 peptides summed): 3.68E+07 | Fold Change (Aggrelyte-2 vs Control) [Total Sum] ([3]; Actin cytoplasmic 1 K61): 3.48 | Aggrelyte-2 treated Area ([3]; Actin cytoplasmic 1 K61, lens of donor): 7.63E+04 | Fold Change (Aggrelyte-2 vs Control) [Total Sum] ([3]; Actin cytoplasmic 1 K213): 3.53 | Aggrelyte-2 treated Area ([3]; Actin cytoplasmic 1 K213, lens of donor): 1.03E+05 | Fold Change (Aggrelyte-2 vs Control) [Total Sum] ([3]; AlphaB-crystallin K72): 3.56 | Aggrelyte-2 treated Area ([3]; AlphaB-crystallin K72, lens of donor): 6.31E+05 | Fold Change (Aggrelyte-2 vs Control) [Total Sum] ([3]; AlphaB-crystallin K174): 7.41 | Aggrelyte-2 treated Area ([3]; AlphaB-crystallin K174, lens of donor): 5.84E+06 | Fold Change (Aggrelyte-2 vs Control) [Total Sum] ([3]; BetaB2-crystallin K42): 25.80 | Aggrelyte-2 treated Area ([3]; BetaB2-crystallin K42, lens of donor): 6.98E+05 | Fold Change (Aggrelyte-2 vs Control) [Total Sum] ([3]; Filensin K360): 3.94 | Aggrelyte-2 treated Area ([3]; Filensin K360, lens of donor): 1.16E+05 | Fold Change (Aggrelyte-2 vs Control) [Total Sum] ([3]; Glyceraldehyde-3-phosphate dehydrogenase K263): 3.18 | Aggrelyte-2 treated Area ([3]; Glyceraldehyde-3-phosphate dehydrogenase K263, lens of donor): 1.04E+05 | Fold Change (Aggrelyte-2 vs Control) [Total Sum] ([3]; Peroxiredoxin-6 K56): 3.26 | Aggrelyte-2 treated Area ([3]; Peroxiredoxin-6 K56, lens of donor): 5.83E+05 | Fold Change (Aggrelyte-2 vs Control) [Total Sum] ([3]; Phakinin K400): 14.48 | Aggrelyte-2 treated Area ([3]; Phakinin K400, lens of donor): 2.21E+05 | Fold Change (Aggrelyte-2 vs Control) [Total Sum] ([3]; Retinal dehydrogenase 1 K495): 9.12 | Aggrelyte-2 treated Area ([3]; Retinal dehydrogenase 1 K495, lens of donor): 9.11E+04
